Consider 18 compounds from patent US20080234362A1, “Treatment for Asthma and Arthritis and Other Inflammatory Diseases” (BIONOVATE LIMITED, priority 2004, published 2008).

“Also recorded” adds a separate entry of the source. Like-named read-outs stand apart in the source and are kept apart here.

One experiment deals with mast cells. Particulars: cited from earlier work; for IC50: read-out: IC50 (μM) degranulation of mast cells; for ranking of activity in the anti-allergy model: mast cell degranulation.
The subject of experiment [1] is histamine, TNFα and IL-1B induced by IgE. Particulars: mouse and rat model; cited from earlier work.
For experiment [2] the following is noted: in vitro; cited from earlier work.
In another experiment the test system is TPA-induced ear oedema. Particulars: cited from earlier work.
Another experiment concerns TNFα. Particulars: cited from earlier work.
The test system of a further experiment is LTB4 production. Particulars: 9 g/day; cited from earlier work.
Experiment [3] relates to antigen-induced bronchoconstriction and airway hyper-reactivity. Particulars: oral, before and after sensitisation; ovalbumin; cited from earlier work.
The test system of experiment [4] is Recurrent airway obstruction (RAO). Kind of experiment: double-blind placebo controlled clinical trial on recurrent airway obstruction in horses. Type of experiment: in vivo. Particulars: horses with RAO. The source says:
A Double-Blind Placebo Controlled Clinical Trial comparing the Efficacy of the Green Lipped Mussel Lipid Extract and Flavonoid alone and in Combination on Recurrent Airway Obstruction in Horses.
Recurrent airway obstruction (RAO), an equine asthma, is a chronic inflammatory disease of the airways typified by bronchoconstriction, wheezing and increased mucous production and caused by allergy to fungal and other dusts but mediated, in part, by leukotrienes and other lipid mediators. […] Studies included clinical status, exercise recovery, breath condensate, broncho-alveolar lavage, cytology and mucous scorings.
Eight horses aged 9-21 with RAO symptoms and cytology consistent with the accepted definition of RAO were recruited.
The study was a double blind randomized, placebo controlled trial. […]
Subjects were clinically and endoscopically examined and BAL and condensate collected and frozen in liquid nitrogen every two weeks. […] The BAL cytology was scored by neutrophil count. Mucous was scored by location, type, volume and viscosity. […]
The clinical assessments scores were assessed as a mean clinical RAO score. The clinical assessments were evaluated on a scale of 1-10 where 1 was severe disease symptomology and 10 indicated a disease-free condition score and the results are shown in Table 1 and FIG. 3. […]

What is called IC50 is the point on the concentration scale where inhibition reaches its midpoint. Regarding `O=c1cc(-c2ccccc2)oc2ccccc12` [Flavone], the half-maximal inhibitory concentration (IC50) in the experiment on mast cells was > 100 µM.
In the case of `O=c1cc(-c2ccccc2)oc2cc(O)c(O)c(O)c12` [Baicalein], the “potency on IgE-induced histamine, TNFα and IL-1B production versus other agents” value in experiment [1] is listed as “more potent than many other agents”. The IC50 in the experiment with mast cells is 17 µM.
Turning to `COc1ccc(-c2cc(=O)c3c(O)cc(O[C@@H]4O[C@H](CO[C@@H]5O[C@@H](C)[C@H](O)[C@@H](O)[C@H]5O)[C@@H](O)[C@H](O)[C@H]4O)cc3o2)cc1O` [Diosmin], in the experiment on mast cells, the half-maximal inhibitory concentration (IC50) is > 100 µM.
For `O=c1c(O)c(-c2ccccc2)oc2cc(O)cc(O)c12` [Galangin], in the experiment with mast cells, the 50% inhibitory concentration (IC50) is 40 µM.
Take `O=c1c(O)c(-c2ccc(O)c(O)c2)oc2cc(O)ccc12` [Fisetin]: in the experiment with mast cells, the “ranking of activity in the anti-allergy model” value (“ranking of activity” for short) was “most active” and the IC50 was 3.3 µM.
Regarding `O=c1c(O)c(-c2ccc(O)c(O)c2)oc2cc(O)cc(O)c12` [Quercetin], in experiment [2], the “antioxidant efficiency versus traditional vitamins” value is “more efficient antioxidants than traditional vitamins”. In experiment [1], the “potency on IgE-induced histamine, TNFα and IL-1B production versus other agents” value is given as “more potent than many other agents”. Further, in the experiment on mast cells, the “ranking of activity” value is listed as “most active” and the concentration for half-maximal inhibition (IC50) is 3 µM. In addition, the “oral anti-inflammatory activity, TPA ear oedema” value in the experiment on TPA-induced ear oedema is listed as “effective”.
Take `O=c1c(O)c(-c2ccccc2)oc2ccc(O)cc12` [3,6-dihydroxyflavone]: the IC50 with mast cells was 6 µM.
On to `O=c1c(O)c(-c2ccc(O)cc2O)oc2cc(O)cc(O)c12` [Morin], for which the IC50 in the experiment on mast cells was 51 µM.
As for `COc1ccc(-c2cc(=O)c3c(O)cc(O)cc3o2)cc1O` [Diosmetin], the “ranking of activity” value with mast cells is recorded as “most active”.
With `O=c1cc(-c2ccc(O)cc2)oc2cc(O)cc(O)c12` [Apigenin], in the experiment on TNFα, the “oral in vivo anti-TNFα activity” value was “potent”. Moreover, in the experiment with mast cells, the “ranking of activity” value is listed as “most active” and the IC50 is 4.5 µM.
Consider `O=c1c(O)c(-c2ccc(O)cc2)oc2cc(O)cc(O)c12` [Kaempferol], for which the IC50 in the experiment on mast cells is 7.5 µM.
Take `CC/C=C\C/C=C\C/C=C\CCCCCCCC(=O)O` [a-LNA, a-linolenic acid]: the “LTB4 production and pulmonary function” value with LTB4 production is “inhibit LTB4 production and improve pulmonary function”.
`O=c1c(O)c(-c2cc(O)c(O)c(O)c2)oc2cc(O)cc(O)c12` [Myricetin]: the “antioxidant efficiency versus traditional vitamins” value in experiment [2] is reported as “more efficient antioxidants than traditional vitamins”. Further, the concentration for half-maximal inhibition (IC50) with mast cells was 6.7 µM.
As to `O=c1cc(-c2ccc(O)c(O)c2)oc2cc(O)cc(O)c12` [Luteolin], the “oral in vivo anti-TNFα activity” value with TNFα is recorded as “potent; also recorded: more potent than apigenin; also recorded: inhibited”. Moreover, the “antigen-induced bronchoconstriction and airway hyper-reactivity” value in experiment [3] is reported as “significantly reduced”. For the same compound, the “potency on IgE-induced histamine, TNFα and IL-1B production versus other agents” value in experiment [1] is recorded as “more potent than many other agents”. In addition, in the experiment on mast cells, the “ranking of activity” value is on record as “most potent” and the IC50 is 1.8 µM. Further, the “ranking of activity” value in the experiment with mast cells (listed as luteolin) is “most active”. Moreover, in experiment [4] (4 capsules per day, 28 days, scale 1-10, 1 severe, 10 disease-free), the “Mean clinical RAO score” value is recorded as 3.38^ade. Also, the “improvement of respiratory function” value in experiment [4] (versus placebo) is given as “significantly (P<0.001) improved”. Besides, in the experiment on TPA-induced ear oedema, the “oral anti-inflammatory activity, TPA ear oedema” value is reported as “effective”.
Consider `O=c1c(O)c(-c2ccccc2)oc2ccccc12` [3-hydroxyflavone], for which the half-maximal inhibitory concentration (IC50) in the experiment on mast cells is > 100 µM.
As to `O=c1cc(-c2ccccc2)oc2cc(O)cc(O)c12` [Chrysin], the 50% inhibitory concentration (IC50) with mast cells is > 100 µM.
For the compound `O=c1cc(-c2ccccc2)oc2cc(O)ccc12` [7-hydroxyflavone], the half-maximal inhibitory concentration (IC50) with mast cells is 21 µM.
Take `O=c1cc(-c2ccccc2)oc2ccc(O)cc12` [6-hydroxyflavone]: in the experiment on mast cells, the IC50 was 28 µM.
